Two molecules from patent publication US4319028A, “7-(2-(Substituted benzoyl)amino)acetamido)cephalosporins” (Eli Lilly and Company, priority 1976, dated 1982) can be followed below.

The test system of data set [1] is Shigella sp. The data set is described as follows: Antibiotic activity (MIC), Gradient Plate in vitro method, Shigella sp. Format: cell-based. Particulars: read-out: Minimum Inhibitory Concentration. From the text: (§1) The antibiotic activity of the cephalosporin compounds of the present invention is illustrated by the data presented in Table I for representative compounds. The values in the table are the minimum inhibitory concentrations (MIC) for the test compounds against the indicated microorganisms. The MIC values were obtained in the Gradient Plate in vitro method for determining antibiotic activity.

The test system of data set [2] is Escherichia coli. The data set is described as follows: Antibiotic activity (MIC), Gradient Plate in vitro method, Escherichia coli. Format: cell-based. To be noted: read-out: Minimum Inhibitory Concentration. From the text:
(§2) The values in the table are the minimum inhibitory concentrations (MIC) for the test compounds against the indicated microorganisms. The MIC values were obtained in the Gradient Plate in vitro method for determining antibiotic activity.

The test system of data set [3] is Klebsiella pneumoniae. The data set is described as follows: Antibiotic activity (MIC), Gradient Plate in vitro method, Klebsiella pneumoniae. It counts as cell-based. Particulars: read-out: Minimum Inhibitory Concentration.
Description: as §2

Data set [4] deals with Aerobacter Aerogenes. The data set is described as follows: Antibiotic activity (MIC), Gradient Plate in vitro method, Aerobacter Aerogenes. Format: cell-based. Particulars: Klebsiella aerogenes, read-out: Minimum Inhibitory Concentration.
Description: as §2

Data set [5] relates to Salmonella heidelberg. The data set is described as follows: Antibiotic activity (MIC), Gradient Plate in vitro method, Salmonella heidelberg. Particulars: Salmonella enterica, read-out: Minimum Inhibitory Concentration. Format: cell-based.
Description: as §2

Data set [6] concerns Pseudomonas Aeruginosa. The data set is described as follows: Antibiotic activity (MIC), Gradient Plate in vitro method, Pseudomonas Aeruginosa. Format: cell-based. Particulars: read-out: Minimum Inhibitory Concentration.
Description: as §2

Data set [7] has as its system Serratia marcescens. The data set is described as follows: Antibiotic activity (MIC), Gradient Plate in vitro method, Serratia marcescens. Particulars: read-out: Minimum Inhibitory Concentration. It counts as cell-based.
Description: as §1

In data set [8] the test system is V41 (penicillin resistant Staphylococcus). Put plainly: Antibiotic activity (MIC), Gradient Plate in vitro method, V41. Format: cell-based. Particulars: read-out: Minimum Inhibitory Concentration.
Description: as §1
(§3) ^1 Test organisms V41, V32, and V84 are penicillin resistant

The test system of data set [9] is V32 (penicillin resistant Staphylococcus). The data set is described as follows: Antibiotic activity (MIC), Gradient Plate in vitro method, V32. Format: cell-based. Particulars: read-out: Minimum Inhibitory Concentration.
Description: as §1, §3

The test system of data set [10] is X466 (methicillin resistant Staphylococcus). The data set is described as follows: Antibiotic activity (MIC), Gradient Plate in vitro method, X466. It counts as cell-based. Particulars: read-out: Minimum Inhibitory Concentration. From the text: The antibiotic activity of the cephalosporin compounds of the present invention is illustrated by the data presented in Table I for representative compounds. The values in the table are the minimum inhibitory concentrations (MIC) for the test compounds against the indicated microorganisms. The MIC values were obtained in the Gradient Plate in vitro method for determining antibiotic activity. […]

Data set [11] has as its system V84 (penicillin resistant Staphylococcus). Put plainly: Antibiotic activity (MIC), Gradient Plate in vitro method, V84. Format: cell-based. To be noted: read-out: Minimum Inhibitory Concentration.
Description: as §1, §3

Data set [12] is described as follows: Water solubility (inferred from low yield). Particulars: inferred from low yield of aqueous isolation. Format: physicochemical.
Data set [13] can be described thus: Titration (pKa). It counts as physicochemical. Particulars: 66% dmf-34% h2o, titration (66% DMF-34% H2O).

The structures appear in SMILES notation. In brackets after ≈: the same amount, converted by molar mass. Like-named read-outs stand apart in the source and are kept apart here.

Take `Cc1nnc(SCC2=C(C(=O)O)N3C(=O)C(NC(=O)[C@H](NC(=O)c4ccc(O)cc4)c4ccc(O)cc4)C3SC2)s1` (stereo partly drawn) [Example 12, 7-[D-[2-(4-Hydroxyphenyl)-2-[(4-hydroxybenzoyl)amino]acetyl]-amino]-3-[[(5-methyl-1,3,4-thiadiazol-2-yl)thio]methyl]-3-cephem-4-carboxylic acid]: the MIC in data set [1] is 13.9 µg/mL (≈ 22.6 µM); in data set [2] it was 50 µg/mL (≈ 81.5 µM); in data set [3] it was 29.5 µg/mL (≈ 48.1 µM); in [4] it was 40 µg/mL (≈ 65.2 µM); in data set [5] it was 33 µg/mL (≈ 53.8 µM); in [6], over 200 µg/mL. Moreover, the MIC is over 200 µg/mL in data set [7]; 1 µg/mL (≈ 1.63 µM) in [8] (Staphylococcus); 1 µg/mL (≈ 1.63 µM) in data set [9] (Staphylococcus); 84 µg/mL (≈ 137 µM) in data set [10]; 1 µg/mL (≈ 1.63 µM) in data set [11] (Staphylococcus). In data set [12], the water solubility result was “quite water soluble”.
In the case of `NC(=O)OCC1=C(C(=O)O)N2C(=O)C(NC(=O)C(NC(=O)c3cccc(O)c3O)c3ccccc3)C2SC1` [Example 20, 7-[D-[2-Phenyl-2-[(2,3-dihydroxybenzoyl)amino]acetyl]-amino]-3-carbamoyloxymethyl-3-cephem-4-carboxylic acid], the MIC worked out at 58 µg/mL (≈ 107 µM) in [1]; 74 µg/mL (≈ 136 µM) in [2]; 6.5 µg/mL (≈ 12 µM) in data set [3]; 76 µg/mL (≈ 140 µM) in data set [4]; 1 µg/mL (≈ 1.84 µM) in data set [5]; 140 µg/mL (≈ 258 µM) in [6]. Further, the MIC in data set [7] was over 200 µg/mL; in data set [8] (Gradient Plate in vitro, V41, penicillin resistant Staphylococcus) it was 7.9 µg/mL (≈ 14.6 µM); in data set [9] (Gradient Plate in vitro, V32, penicillin resistant Staphylococcus) it was 7.4 µg/mL (≈ 13.6 µM); in [10] it was over 200 µg/mL; in [11] (Gradient Plate in vitro, V84, penicillin resistant Staphylococcus) it was 6.1 µg/mL (≈ 11.2 µM). For the same molecule, the pKa was 5.15 in data set [13] (first pKa, read-out: pKa (first value)) and 8.7 in [13] (second pKa, read-out: pKa (second value)).
